For one assay, the target named is T1, PRMT1 (Homo sapiens, UniProt Q99873).
T1 construct: purchased Reaction Biology Corp
As to the kind of experiment: Histone methyltransferase assay (Reaction Biology). The assay is classed as biochemical. Conditions: substrate Histone H4, replicates. Here is the method:
(§1) Software Tool and reprinted with permission from KINOME scan®, a division of DiscoveRx […]
(§2) The following […] assays (HDAC, SIRT1, PRMT1, PARP1, p300, pCAF) were performed by Reaction Biology Corp. FKK6 was screened at a single concentration of 10 μM in duplicate in two separate experiments. The appropriate controls for the individual assays are published. The overall […]
(§3) enzyme activity in the assay is reported as a % activity in DMSO control wells. Control IC50 […]
(§4) Briefly, for the Sirtuin (SIRT1) assay, human SIRT1 (GenBank
Accession No. NM012238) full -length N-terminal His-tag protein (MW 83.2 kDa) was purified after expression in E. coli. The reaction buffer was freshly prepared and constituted 50 mM Tris-HC l ( p H 8), 137 mM NaCl, 2.7 mM KCl, 1 mM MgCl2, and just before use, 1 mg/mL BSA and 1% DMSO was added. The substrate was a fluorogenic acetylated peptide of p53 residues 379-382 (RHKK (Ac)- AM C) . In th e multi-well format, the 2X enzyme was mixed with the reaction buffer followed by compound (in 100% DMSO) titration via Acoustic technology (Echo550; LabCyte Inc, Sunnyvale, CA) in the nanoliter range. The mixture was spun down and 2X substrate (including NAD+) was added to initiate the reaction at 30° C at 2h under seal. […]

Another assay addresses T2, P300 (Homo sapiens, UniProt Q09472).
T2 construct: or p300 (aa 1284-1672); purchased Reaction Biology Corp; host or cells: E. coli
As to the kind of experiment: Histone acetyltransferase assay p300 (Reaction Biology). The assay is classed as biochemical. Here is the method: as §1, §2, §3, §4
Accession No. NM012238) full -length N-terminal His-tag protein (MW 83.2 kDa) was purified after expression in E. coli. […]
8), 50 mM NaCl, 0.1 mM EDTA, 1 mM DTT, 1 mM PMSF, and 1% DMSO. […] The radioactivity in mixture is detected on washed filter paper using a scintillation counter. […]
The 2X HDAC substrate is a fluorogenic acetylated peptide from p53 (residues 379 - 38 2 RHKK(Ac)AMC) which is mixed in with the enzyme-compound complex and incubated for 1-2 h at 30 °C. In the development step, a proprietary developer with trichostatin A (or TMP269) is added to stop the reaction and to generate fluorescent color which is read using an EnVision Multilabel Plate Reader (Perkin Elmer) (Ex 360 nm/ Em 460 nm). […]

The record followed here is article PMC7136958, “Targeting the pregnane X receptor using microbial metabolite mimicry” (EMBO Molecular Medicine, 2020).

Where “and” joins values, the source holds several entries; their conditions need not be identical. Identical values can stand only once.

T1 sequence (Q99873 whole entry, species assumed): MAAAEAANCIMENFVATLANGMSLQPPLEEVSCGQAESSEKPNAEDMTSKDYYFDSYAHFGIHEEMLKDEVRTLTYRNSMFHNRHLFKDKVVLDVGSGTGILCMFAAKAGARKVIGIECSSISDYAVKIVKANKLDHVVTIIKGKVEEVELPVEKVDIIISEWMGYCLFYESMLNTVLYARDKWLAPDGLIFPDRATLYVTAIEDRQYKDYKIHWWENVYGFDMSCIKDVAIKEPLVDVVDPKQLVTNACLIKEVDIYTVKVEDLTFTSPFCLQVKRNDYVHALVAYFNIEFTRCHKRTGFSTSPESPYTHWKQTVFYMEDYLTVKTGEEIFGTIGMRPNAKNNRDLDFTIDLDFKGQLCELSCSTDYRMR
T2 sequence (Q09472 1284-1672): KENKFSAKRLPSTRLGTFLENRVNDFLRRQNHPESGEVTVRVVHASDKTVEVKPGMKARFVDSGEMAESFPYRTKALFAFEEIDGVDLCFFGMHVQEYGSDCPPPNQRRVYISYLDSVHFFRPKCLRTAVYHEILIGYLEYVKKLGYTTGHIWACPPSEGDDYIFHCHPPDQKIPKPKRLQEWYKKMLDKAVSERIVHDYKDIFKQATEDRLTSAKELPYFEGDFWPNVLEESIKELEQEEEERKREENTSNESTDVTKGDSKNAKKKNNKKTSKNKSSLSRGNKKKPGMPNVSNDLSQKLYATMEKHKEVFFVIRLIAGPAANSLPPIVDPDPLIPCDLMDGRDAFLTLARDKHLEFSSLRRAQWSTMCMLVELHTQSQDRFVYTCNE

As for `C#CCC(O)(c1ccncc1)c1cc2ccccc2n1S(=O)(=O)c1ccccc1` (stereo not shown) [FKK6], the “% Enzyme Activity to DMSO controls” value on PRMT1 (10 μM) was 88.77% and 78.47% and 81.3%; at P300 (10 μM, substrate Histone H3, replicates data1/2 Exp 1/2), 97.73% and 98.72% and 95.38%. For the same molecule, the remaining activity at 10 µM on PRMT1 (read-out: % Enzyme Activity to DMSO controls) is 86.4%; at P300 (substrate Histone H3, replicates data1/2 Exp 1/2, read-out: % Enzyme Activity to DMSO controls), 100%.
